Assay [1] can be described thus: Comparison of perceived cooling: second compound plus dimethyl sulfoxide vs. second compound alone (Table I). The format is in vivo. The note with it: scale 0-10. An excerpt:
is admixed with such “second compound(s),” the resulting mixture as stated, supra, has a highly intensified oral sensory perception effect, for example, a “highly intensified cooling effect” or a “highly intensified hot, burning effect.” Such effects are highly desirable in the use of certain oral care products such as mouthwashes, toothpastes and the like as set forth, supra. Thus, the following Table I sets forth a comparison of a “control” which is a “second compound” taken alone vs. the mixture of dimethyl sulfoxide with the said “second compound”: […]

The nature of assay [2]: Perceived cooling in screening base: silica toothpaste base with 0.4% saccharin (Table II). It counts as in vivo. An excerpt:
The following Table II sets forth the effect in a screening base, in this case: silica toothpaste base containing 0.4% saccharin of various “second compounds” in admixture with dimethyl sulfoxide, as follows: […]

Setting [3] is: second compound 30 ppm + DMSO 0.1 ppm.
Where [4] appears, read: second compound 30 ppm + DMSO 100 ppm.
The mark [5] stands for this setting: second compound alone 30 ppm (control for DMSO 0.1 ppm line).
Setting [6] is: second compound alone 30 ppm (control for DMSO 100 ppm line).
The mark [7] stands for this setting: scaled 1-10, 2nd compound 30 ppm + DMSO 0.1 ppm.
[8] abbreviates: scaled 1-10, 2nd compound 30 ppm + DMSO 1 ppm.
Setting [9] is: scaled 1-10, 2nd compound alone 30 ppm (line of DMSO 0.1 ppm).
Setting [10] is: scaled 1-10, 2nd compound alone 30 ppm (line of DMSO 1 ppm).

With `CC1CCC(C(C)C)C(O)C1` (centres unmarked) [Menthol, menthol], the “Effect of Mixture vs. Control, perceived cooling: mixture” value in assay [1] (second compound 5 ppm + DMSO 0.1 ppm) is recorded as 8; in assay [1] (second compound 10 ppm + DMSO 1 ppm), 9; in assay [1] (second compound 30 ppm + DMSO 5 ppm), 9.5; in assay [1] (second compound 100 ppm + DMSO 10 ppm) it was 8.7. Also, the “Effect of Mixture vs. Control, perceived cooling: control” value is 1.5 in assay [1] (second compound alone 5 ppm (control for DMSO 0.1 ppm line)), 1.3 in assay [1] (second compound alone 10 ppm (control for DMSO 1 ppm line)), 1.1 in assay [1] (second compound alone 30 ppm (control for DMSO 5 ppm line)) and 2 in assay [1] (second compound alone 100 ppm (control for DMSO 10 ppm line)). For the same compound, in assay [2] (scaled 1-10, 2nd compound 0.50% + DMSO 1 ppm), the “Observed Effect Scaled at 1-10 vs. 2nd Compound Alone, perceived cooling: with DMSO” value amounted to 8.2. The “Observed Effect Scaled at 1-10 vs. 2nd Compound Alone, perceived cooling: 2nd compound alone” value in assay [2] (scaled 1-10, 2nd compound alone 0.50% (line of DMSO 1 ppm)) amounted to 1.6.

`CC1CCC(C(C)C)C(OC(=O)C(C)O)C1` (centres unmarked) [Menthyl lactate]: the “Effect of Mixture vs. Control, perceived cooling: mixture” value in assay [1] (setting [3]) is 8.4; in assay [1] (setting [4]), 8.2. The results for the “Effect of Mixture vs. Control, perceived cooling: control” value in assay [1] (setting [5]) and in assay [1] (setting [6]) were 1.7 and 2.1, respectively.

As for `CC1CCC(C(C)C)C(OC(=O)CCC(=O)O)C1` (centres unmarked) [Monomenthyl succinate, menthyl succinate], the results for the “Effect of Mixture vs. Control, perceived cooling: mixture” value in assay [1] (second compound 100 ppm + DMSO 0.1 ppm) and in assay [1] (second compound 100 ppm + DMSO 100 ppm) were 9.1 and 8.7, respectively. Further, the “Effect of Mixture vs. Control, perceived cooling: control” value in assay [1] (second compound alone 100 ppm (control for DMSO 0.1 ppm line)) is 3.8; in assay [1] (second compound alone 100 ppm (control for DMSO 100 ppm line)), 2.5. The “Observed Effect Scaled at 1-10 vs. 2nd Compound Alone, perceived cooling: with DMSO” value was 9.0 in assay [2] (scaled 1-10, 2nd compound 100 ppm + DMSO 0.1 ppm) and 9.2 in assay [2] (scaled 1-10, 2nd compound 100 ppm + DMSO 1 ppm). The “Observed Effect Scaled at 1-10 vs. 2nd Compound Alone, perceived cooling: 2nd compound alone” value in assay [2] (scaled 1-10, 2nd compound alone 100 ppm (line of DMSO 0.1 ppm)) was 3.5; in assay [2] (scaled 1-10, 2nd compound alone 100 ppm (line of DMSO 1 ppm)), 3.7.

With `CCNC(=O)C1CC(C)CCC1C(C)C` (centres unmarked) [WS 3 ®], the results for the “Effect of Mixture vs. Control, perceived cooling: mixture” value in assay [1] (setting [3]) and in assay [1] (setting [4]) were 9.3 and 9.0, respectively. For the same compound, the “Effect of Mixture vs. Control, perceived cooling: control” value in assay [1] (setting [5]) stood at 1.5; in assay [1] (setting [6]) it was 1.6. Moreover, the figures for the “Observed Effect Scaled at 1-10 vs. 2nd Compound Alone, perceived cooling: with DMSO” value in assay [2] (setting [7]) and in assay [2] (setting [8]) were 9.1 and 9.0, respectively. The results for the “Observed Effect Scaled at 1-10 vs. 2nd Compound Alone, perceived cooling: 2nd compound alone” value in assay [2] (setting [9]) and in assay [2] (setting [10]) were 1.7 and 1.6, respectively.

As for `CCC(C)C(C(=O)NC(C)C)C(C)C` (centres unmarked) [WS 23 ®], the “Effect of Mixture vs. Control, perceived cooling: mixture” value in assay [1] (setting [3]) was 9.6; in assay [1] (setting [4]), 9.2. The “Effect of Mixture vs. Control, perceived cooling: control” value in assay [1] (setting [5]) was found to be 2.4; in assay [1] (setting [6]), 2.2. Also, the “Observed Effect Scaled at 1-10 vs. 2nd Compound Alone, perceived cooling: with DMSO” value in assay [2] (setting [7]) is reported as 9.8; in assay [2] (setting [8]) it was 9.9. For the same compound, the “Observed Effect Scaled at 1-10 vs. 2nd Compound Alone, perceived cooling: 2nd compound alone” value is reported as 2.4 in assay [2] (setting [9]) and 2.6 in assay [2] (setting [10]).

Source of the values: patent US6365215B1, “Oral sensory perception-affecting compositions containing dimethyl sulfoxide, complexes thereof and salts thereof” (International Flavors & Fragrances Inc., priority 2000, dated 2002).
